Columns and labels:
[1] = Dye release from crystalline cellulose gel to liquid phase (visual and spectrophotometric); format: physicochemical; conditions: for release pattern from crystalline cellulose gel (very slow, slow, fast, very fast): categorised from absorbance in the liquid phase, 0-72 hours; for dye release to liquid phase, absorbance: over 72 hours, 10 ml RO water over gel, at absorbance maximum of dye, 4 AU = saturation; for colour of solution above the precipitate after 72 hours (dye diffusion out of cellulose crystals): 72 hours at room temperature (approximately 21-22° C.), visual
Protocol: Approximately 2 ml aliquots of 3% w/v crystalline cellulose gel samples containing small solid cellulose crystals were thoroughly mixed with respective model dye solutions and incubated for 30 minutes at room temperature. The stained samples where then centrifuged. The supernatant was decanted, and the pellets containing crystalline cellulose were washed several times with reverse osmosis water and centrifuged. The cycles of washing and centrifugation were repeated until water in which cellulose gel was suspended was clear. After the final wash, small samples of each gel were taken for microscopic examination, and the gels in each tube were covered with a 10 ml column of RO water. These preparations served as media for monitoring the rate of dye release from crystalline cellulose gel to the surrounding liquid phase. Following a few minutes of sample equilibration, 500 μl of the liquid phase was withdrawn from each preparation for spectroscopic measurements to establish absorbance values at time 0. Subsequently, 500 μl samples of the liquid phase were collected at 2, 6, 12, 24, 48, and 72 hour intervals for monitoring of dye release to the liquid phase from the cellulose matrix over time.

[2] = Solubility of Clotrimazole in water / methanol, dark field microscopy; format: physicochemical
Description: The methanol solution was then mixed with 1% cellulose gel (treatment) and water (positive control). All samples were examined under a dark field microscope.

[3] = cited from earlier work
[4] = 1 mg per ml, dark field microscope

SMILES | release pattern from crystalline cellulose gel (very slow, slow, fast, very fast) [1] | dye release to liquid phase, absorbance [1] | colour of solution above the precipitate after 72 hours (dye diffusion out of cellulose crystals) [1] | solubility in methanol [2, 4] | solubility in water [2, 4] | behaviour of methanol solution mixed with water ([2]; methanol solution 1 mg per ml mixed with water) | solubility in organic solvents (known property) [3] | solubility in water (known property) [3]
CCN(Cc1cccc(S(=O)(=O)[O-])c1)c1ccc(C(=C2C=CC(=[N+](CC)Cc3cccc(S(=O)(=O)O)c3)C=C2)c2ccc(S(=O)(=O)O)cc2)cc1 [light green, Light Green] | very fast | 4 AU | – | – | – | – | – | –
Nc1c(/N=N/c2ccc(-c3ccc(/N=N/c4cc(S(=O)(=O)[O-])c5ccccc5c4N)cc3)cc2)cc(S(=O)(=O)[O-])c2ccccc12.[Na+].[Na+] [congo red, Congo Red] | slow | 0.128 AU | diffused out of the precipitated cellulose crystals | – | – | – | – | –
Oc1cc2c(cc1O)[C@@H]1c3ccc(O)c(O)c3OC[C@]1(O)C2 [haematoxylin, Hematoxilin] | slow | 0.09 AU | diffused out of the precipitated cellulose crystals | – | – | – | – | –
CCN(CC)c1ccc(C(=C2C=CC(=[N+](CC)CC)C=C2)c2ccccc2)cc1 [brilliant green, Brilliant Green] | very fast | 4 AU | – | – | – | – | – | –
Clc1ccccc1C(c1ccccc1)(c1ccccc1)n1ccnc1 [Clotrimazole] | – | – | – | totally dissolved in methanol | not soluble in water | fine crystals precipitated | soluble in acetone, chloroform, methanol and ethanol | practically insoluble in water
CN(C)c1ccc(C(=C2C=CC(=[N+](C)C)C=C2)c2ccccc2)cc1.[Cl-] [malachite green, Malachite Green] | slow | 0.32 AU | – | – | – | – | – | –
Cc1cc2nc3cc(C)c(N)cc3[n+](-c3ccccc3)c2cc1N [safranine, Safranine] | slow | 0.08 AU | slight pinkish hue | – | – | – | – | –
CN(C)c1ccc2nc3ccc(=[N+](C)C)cc-3sc2c1 [methylene blue, Methylene Blue] | very slow | 0.025 AU | slight bluish hue | – | – | – | – | –

From patent publication US20170000903A1, “CRYSTALLINE CELLULOSE GEL-BASED CRYPTANDS, SURFACE ACTIVE AGENTS, EMULSIONS AND VESICLES” (UNIVERSITY OF SASKATCHEWAN, priority 2013, published 2017)
